Values joined by “and” are separate entries in the source; they are usually repeats but may differ in a detail not shown here. Equal entries are not always repeated. Where two headings read alike, the source gives them in different places. Each block holds one molecule with its values, some of them ahead of it.
Experiments:
[1] = molecular target: T1, rat adrenergic α1B receptor (Rattus norvegicus, UniProt P15823); test: Radioligand binding, adrenergic α1B ([3H]Prazosin); conditions: [3H]Prazosin; for Percentage inhibition of ligand binding, Adrenergic α1B (0.1 μM) / Percentage inhibition of ligand binding, Adrenergic α1B: 0.1 µM
T1 construct: rat adrenergic α1B receptor obtained from Wistar Rat liver; from tissue; host or cells: Wistar rat liver
T1 sequence (P15823 1-515): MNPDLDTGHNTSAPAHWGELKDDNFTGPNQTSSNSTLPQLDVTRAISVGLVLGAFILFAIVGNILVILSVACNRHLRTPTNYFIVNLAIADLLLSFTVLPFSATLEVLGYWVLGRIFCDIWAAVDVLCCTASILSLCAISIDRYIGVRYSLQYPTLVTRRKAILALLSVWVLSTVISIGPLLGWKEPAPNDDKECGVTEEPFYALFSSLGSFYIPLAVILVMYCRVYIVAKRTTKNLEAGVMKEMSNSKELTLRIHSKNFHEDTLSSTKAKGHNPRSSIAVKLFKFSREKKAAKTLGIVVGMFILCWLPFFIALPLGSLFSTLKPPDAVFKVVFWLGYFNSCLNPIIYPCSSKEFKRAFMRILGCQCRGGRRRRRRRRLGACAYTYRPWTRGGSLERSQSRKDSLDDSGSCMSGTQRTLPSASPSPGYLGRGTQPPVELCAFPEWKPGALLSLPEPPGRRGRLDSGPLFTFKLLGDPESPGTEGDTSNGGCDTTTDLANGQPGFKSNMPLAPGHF
Summary of the method: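 Rat α1B receptor from Wistar rat liver was incubated with 0.25 nM [3H]prazosin for 60 min at 25 °C in 50 mM Tris-HCl, pH 7.4, 0.5 mM EDTA. Non-specific binding was defined with 10 μM phentolamine. Bound radioligand was measured by filtration and counting, reported as percent inhibition of specific binding.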

[2] = molecular target: T2, human recombinant adrenergic α2B receptor (Homo sapiens, UniProt P18089); test: Radioligand binding, adrenergic α2B ([3H]Rauwolscine); conditions: for Percentage inhibition of ligand binding, Adrenergic α2B (0.03 μM) / Percentage inhibition of ligand binding, Adrenergic α2B: 0.03 µM
T2 construct: expressed in transfected cells; host or cells: CHO-K1
T2 sequence (P18089 1-450): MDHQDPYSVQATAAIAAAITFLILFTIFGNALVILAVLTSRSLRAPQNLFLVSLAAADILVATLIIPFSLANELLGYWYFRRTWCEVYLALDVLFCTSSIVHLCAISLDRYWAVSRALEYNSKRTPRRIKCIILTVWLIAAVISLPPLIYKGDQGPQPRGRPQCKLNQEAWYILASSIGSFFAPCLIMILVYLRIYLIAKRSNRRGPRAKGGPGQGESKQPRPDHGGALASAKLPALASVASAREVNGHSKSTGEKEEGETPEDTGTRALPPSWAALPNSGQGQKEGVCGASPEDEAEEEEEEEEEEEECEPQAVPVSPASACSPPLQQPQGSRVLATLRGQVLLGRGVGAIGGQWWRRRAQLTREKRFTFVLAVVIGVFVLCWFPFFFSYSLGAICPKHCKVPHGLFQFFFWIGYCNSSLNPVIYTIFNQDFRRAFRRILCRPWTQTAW
Summary of the method: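 Receptor expressed in CHO-K1 cells, assayed in 50 mM Tris-HCl pH 7.4 with 12.5 mM MgCl2, 1 mM EDTA and 0.2% BSA. Compounds were incubated with 2.5 nM [3H]Rauwolscine for 60 min at 25° C; 10 μM Prazosin defined non-specific binding. Filter counting gave percent inhibition of specific binding.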

[3] = molecular target: T3, human recombinant adrenergic α2A receptor (Homo sapiens, UniProt P08913); test: Radioligand binding, adrenergic α2A ([3H]MK-912); conditions: [3H]MK-912
T3 construct: expressed in transfected cells; host or cells: insect Sf9 cells
T3 sequence (P08913 1-465): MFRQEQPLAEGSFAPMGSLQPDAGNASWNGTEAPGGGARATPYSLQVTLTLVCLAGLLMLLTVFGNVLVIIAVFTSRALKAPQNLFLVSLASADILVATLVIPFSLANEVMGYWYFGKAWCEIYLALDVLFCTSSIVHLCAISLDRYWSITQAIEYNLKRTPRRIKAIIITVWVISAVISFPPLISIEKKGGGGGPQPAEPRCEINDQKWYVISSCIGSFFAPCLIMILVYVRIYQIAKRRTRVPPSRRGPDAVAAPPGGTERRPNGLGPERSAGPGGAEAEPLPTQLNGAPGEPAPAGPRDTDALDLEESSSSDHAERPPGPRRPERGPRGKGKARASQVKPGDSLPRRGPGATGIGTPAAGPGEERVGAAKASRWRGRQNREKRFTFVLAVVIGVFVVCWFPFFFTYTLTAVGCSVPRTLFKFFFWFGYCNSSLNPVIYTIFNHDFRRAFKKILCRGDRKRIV
Summary of the method: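 Sf9 membranes, 1 nM [3H]MK-912, 60 min, 25 °C, Tris-HCl pH 7.4/MgCl2/EDTA buffer. NSB: 10 μM WB-4101. Filtration, counting; % inhibition of specific binding.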

[4] = compound at 0.1 μM, repeat datapoints each shown
[5] = compound at 0.03 μM, [3H]Rauwolscine, repeat datapoints each shown
[6] = compound at 0.1 μM, repeat datapoints each shown, 0.1 µM
[7] = read-out: Percentage inhibition of ligand binding, Adrenergic α1B (0.1 μM), compound at 0.1 μM, repeat datapoints each shown
[8] = read-out: Percentage inhibition of ligand binding, Adrenergic α2B (0.03 μM), compound at 0.03 μM, [3H]Rauwolscine, repeat datapoints each shown
[9] = read-out: Percentage inhibition of ligand binding, Adrenergic α2A (0.1 μM), compound at 0.1 μM, repeat datapoints each shown
[10] = compound at 0.1 μM, repeat assays, each datapoint shown
[11] = compound at 0.03 μM, [3H]Rauwolscine, repeat assays, each datapoint shown
[12] = compound at 0.1 μM, repeat assays, each datapoint shown, 0.1 µM
[13] = compound at 0.1 μM, repeat assays, each datapoint shown, read-out: Percentage inhibition of ligand binding, Adrenergic α1B
[14] = compound at 0.03 μM, [3H]Rauwolscine, repeat assays, each datapoint shown, read-out: Percentage inhibition of ligand binding, Adrenergic α2B
[15] = compound at 0.1 μM, repeat assays, each datapoint shown, read-out: Percentage inhibition of ligand binding, Adrenergic α2A

- Percentage inhibition of ligand binding, Adrenergic α1B (0.1 μM) [1, 4]: −4%
- Percentage inhibition of ligand binding, Adrenergic α2B (0.03 μM) [2, 5]: 10%
- Percentage inhibition of ligand binding, Adrenergic α2A (0.1 μM) [3, 6]: 1%
SMILES: CC(O)(Cn1c2c(c3cc(Cl)cnc31)C1CCCN1CC2)c1cccnc1 (single isomer, unassigned) [IV-210c]

- Percentage inhibition of ligand binding, Adrenergic α1B (0.1 μM) [1, 4]: 19%
- Percentage inhibition of ligand binding, Adrenergic α2B (0.03 μM) [2, 5]: 87%
- Percentage inhibition of ligand binding, Adrenergic α2A (0.1 μM) [3, 6]: 13%
SMILES: CC(O)(Cn1c2c(c3cc(Cl)cnc31)C1CCCN1CC2)c1cccnc1 (single isomer, unassigned) [IV-210d]

- Percentage inhibition of ligand binding, Adrenergic α1B (0.1 μM) [1, 4]: 0%
- Percentage inhibition of ligand binding, Adrenergic α2B (0.03 μM) [2, 5]: 7%
- Percentage inhibition of ligand binding, Adrenergic α2A (0.1 μM) [3, 6]: 18%
SMILES: Cc1ccc2c(c1)c1c(n2CC(C)(OCC(=O)O)c2cccnc2)CCN(C)C1 (single isomer, unassigned) [V-14a, 2-((1-(2,8-dimethyl-3,4-dihydro-1H-pyrido[4,3-b]indol-5(2H)-yl)-2-(pyridin-3-yl)propan-2-yl)oxy)acetic acid]

- Percentage inhibition of ligand binding, Adrenergic α1B (0.1 μM) [1, 4]: 2%
- Percentage inhibition of ligand binding, Adrenergic α2B (0.03 μM) [2, 5]: 0%
- Percentage inhibition of ligand binding, Adrenergic α2A (0.1 μM) [3, 6]: 3%
SMILES: Cc1ccc2c(c1)c1c(n2CC(C)(OCC(=O)O)c2cccnc2)CCN(C)C1 (single isomer, unassigned) [V-14b, 2-((1-(2,8-dimethyl-3,4-dihydro-1H-pyrido[4,3-b]indol-5(2H)-yl)-2-(pyridin-3-yl)propan-2-yl)oxy)acetic acid]

- inhibition at 0.1 µM [1, 7]: 78%
- Percentage inhibition of ligand binding, Adrenergic α2B (0.03 μM) [2, 5]: 57%
- Percentage inhibition of ligand binding, Adrenergic α2A (0.1 μM) [3, 6]: 13%
SMILES: Cc1ccc2c(c1)c1c(n2CC(OC(=O)CCC(=O)O)c2ccncc2)CCN2CCCC12 (single isomer, unassigned) [V-18a, 4-(2-(10-methyl-2,3,5,6-tetrahydro-1H-indolizino[7,8-b]indol-7(11cH)-yl)-1-(pyridin-4-yl)ethoxy)-4-oxobutanoic acid]

- Percentage inhibition of ligand binding, Adrenergic α1B (0.1 μM) [1, 4]: 95%
- Percentage inhibition of ligand binding, Adrenergic α2B (0.03 μM) [2, 5]: 98%
- Percentage inhibition of ligand binding, Adrenergic α2A (0.1 μM) [3, 6]: 57%
SMILES: Cc1ccc2c(c1)c1c(n2CC(OC(=O)CCC(=O)O)c2ccncc2)CCN2CCCC12 (single isomer, unassigned) [V-18b, 4-(2-(10-methyl-2,3,5,6-tetrahydro-1H-indolizino[7,8-b]indol-7(11cH)-yl)-1-(pyridin-4-yl)ethoxy)-4-oxobutanoic acid]

- Percentage inhibition of ligand binding, Adrenergic α1B (0.1 μM) [1, 4]: 68%
- inhibition at 0.03 µM [2, 8]: 98%
- inhibition at 0.1 µM [3, 9]: 62%
SMILES: Cc1ccc2c(c1)c1c(n2CC(N=[N+]=[N-])c2ccc(F)cc2F)CCN(C)CC1 (single isomer, unassigned) [V-21a, 6-(2-azido-2-(2,4-difluorophenyl)ethyl)-3,9-dimethyl-1,2,3,4,5,6-hexahydroazepino[4,5-b]indole]

- Percentage inhibition of ligand binding, Adrenergic α1B (0.1 μM) [1, 4]: 34%
- Percentage inhibition of ligand binding, Adrenergic α2B (0.03 μM) [2, 5]: 93%
- Percentage inhibition of ligand binding, Adrenergic α2A (0.1 μM) [3, 6]: 43%
SMILES: Cc1ccc2c(c1)c1c(n2CC(N=[N+]=[N-])c2ccc(F)cc2F)CCN(C)CC1 (single isomer, unassigned) [V-21b, 6-(2-azido-2-(2,4-difluorophenyl)ethyl)-3,9-dimethyl-1,2,3,4,5,6-hexahydroazepino[4,5-b]indole]

Further lines, the molecule ahead of its results:

SMILES: CC(O)(Cn1c2c(c3cc(Cl)cnc31)C1CCCN1CC2)c1cccnc1 (single isomer, unassigned) [IV-210a]
- Percentage inhibition of ligand binding, Adrenergic α1B (0.1 μM) [1, 4]: 70% and 75%
- inhibition at 0.03 µM ([1]; read-out: Percentage inhibition of ligand binding, Adrenergic α1B (0.03 μM), compound at 0.03 μM, repeat datapoints each shown): 43%
- Percentage inhibition of ligand binding, Adrenergic α2B (0.03 μM) [2, 5]: 101% and 103%
- Ki ([2]; read-out: Ki α2B): 0.33 nM
- Percentage inhibition of ligand binding, Adrenergic α2A (0.1 μM) [3, 6]: 37%

SMILES: CC(O)(Cn1c2c(c3cc(Cl)cnc31)C1CCCN1CC2)c1cccnc1 (single isomer, unassigned) [IV-210b]
- Percentage inhibition of ligand binding, Adrenergic α1B (0.1 μM) [1, 4]: 10%
- Percentage inhibition of ligand binding, Adrenergic α2B (0.03 μM) [2, 5]: 29%
- Percentage inhibition of ligand binding, Adrenergic α2A (0.1 μM) [3, 6]: 8%

SMILES: Cc1ccc2c(c1)c1c(n2CC(O)c2ccncc2)CN(C)CC1 (centres unmarked) [8a]
- Percentage inhibition of ligand binding, Adrenergic α1B [1, 10]: 39%
- Percentage inhibition of ligand binding, Adrenergic α2B [2, 11]: 22%
- Percentage inhibition of ligand binding, Adrenergic α2A [3, 12]: 15%

SMILES: Cc1ccc2c(c1)c1c(n2CC(C)(O)c2cccnc2)CN(C)CC1 (stereo not drawn) [14b, 1-(2,6-dimethyl-1,2,3,4-tetrahydro-β-carbolin-9-yl)-2-pyridin-3-yl-propan-2-ol]
- inhibition at 0.1 µM [1, 13]: 25%
- inhibition at 0.03 µM [2, 14]: 14%
- inhibition at 0.1 µM [3, 15]: -6%

SMILES: Cc1ccc2c(c1)c1c(n2CC(C)(O)c2ccc(C)nc2)CCN(C)C1 (centres unmarked) [29b]
- Percentage inhibition of ligand binding, Adrenergic α1B [1, 10]: 14%
- inhibition at 0.03 µM [2, 14]: 46%
- Percentage inhibition of ligand binding, Adrenergic α2A [3, 10]: 10%

SMILES: CN1CCc2c(c3cc(Cl)ccc3n2CC(C)(O)c2cccnc2)C1 (centres unmarked) [31b]
- inhibition at 0.1 µM [1, 13]: 3%
- inhibition at 0.03 µM [2, 14]: 36%
- inhibition at 0.1 µM [3, 15]: 14%

SMILES: CCC(O)(Cn1c2c(c3cc(C)ccc31)CN(C)CC2)c1ccncc1 (centres unmarked) [35a]
- inhibition at 0.1 µM [1, 13]: 9%
- inhibition at 0.1 µM ([2]; compound at 0.1 μM, [3H]Rauwolscine, repeat assays, each datapoint shown, read-out: Percentage inhibition of ligand binding, Adrenergic α2B): 62%
- inhibition at 0.1 µM [3, 15]: 20%

SMILES: Cc1ccc2c(c1)c1c(n2CC(O)c2cc[n+]([O-])cc2)CCN(C)C1 (centres unmarked) [69a]
- inhibition at 0.1 µM [1, 13]: 4%
- inhibition at 0.03 µM [2, 14]: 10%
- inhibition at 0.1 µM [3, 15]: 11%

SMILES: Cc1ccc2c(c1)c1c(n2CC(O)c2cc[n+]([O-])cc2)CCN(C)C1 (centres unmarked) [69b]
- Percentage inhibition of ligand binding, Adrenergic α1B [1, 10]: 8%
- Percentage inhibition of ligand binding, Adrenergic α2B [2, 11]: 19%
- Percentage inhibition of ligand binding, Adrenergic α2A [3, 12]: 7%

SMILES: Cc1ccc2c(c1)c1c(n2C(C)C(O)c2ccncc2)CCN(C)C1 (centres unmarked) [127b]
- inhibition at 0.1 µM [1, 7]: 13%
- inhibition at 0.03 µM [2, 8]: 1%
- inhibition at 0.1 µM [3, 9]: 4%

SMILES: Cc1ccc2c(c1)c1c(n2CC(C)(O)c2cccnc2)CNCC1 (centres unmarked) [128b]
- inhibition at 0.1 µM [1, 7]: 45%
- inhibition at 0.03 µM [2, 8]: 54%
- inhibition at 0.1 µM [3, 9]: 22%

SMILES: Cc1ccc2c(c1)c1c(n2CC(O)c2cnn(C)c2)CCN(C)C1 (centres unmarked) [131a, 2-(1,2,3,4-tetrahydro-2,8-dimethylpyrido[4,3-b]indol-5-yl)-1-(1-methyl-1H-pyrazol-4-yl)ethanol]
- inhibition at 0.1 µM [1, 7]: 24%
- inhibition at 0.03 µM [2, 8]: 30%
- inhibition at 0.1 µM [3, 9]: 10%

From US8791132B2, “Compounds and methods for treatment of hypertension” (Medivation Technologies, Inc., priority 2011, dated 2014)
